Key:
Details in all cases: 72 h
Caco-2 [1] = test: cell viability relative to DMSO; higher = less toxic
Calu-3 [2] = test: as above
HepG2 [3] = test: as above
U2OS [4] = test: as above
Vero E6 [5] = test: as above
Caco-2 [6] = test: relative viability EC50 (midpoint between 100% and the lowest measured viability); higher = less toxic
Calu-3 [7] = test: as above
HepG2 [8] = test: as above
U2OS [9] = test: as above
Vero E6 [10] = test: as above
Caco-2 [11] = test: drug sensitivity score (DSS) for viability; higher = more toxic; extreme values may be limits of the assay
Calu-3 [12] = test: as above
HepG2 [13] = test: as above
U2OS [14] = test: as above
Vero E6 [15] = test: as above

| Compound | cell viability (Caco-2 [1]; 1 nM) | cell viability (Caco-2 [1]; 10 nM) | cell viability (Caco-2 [1]; 100 nM) | cell viability (Caco-2 [1]; 1000 nM) | cell viability (Caco-2 [1]; 10000 nM) | cell viability (Calu-3 [2]; 1 nM) | cell viability (Calu-3 [2]; 10 nM) | cell viability (Calu-3 [2]; 100 nM) | cell viability (Calu-3 [2]; 1000 nM) | cell viability (Calu-3 [2]; 10000 nM) | cell viability (HepG2 [3]; 1 nM) | cell viability (HepG2 [3]; 10 nM) | cell viability (HepG2 [3]; 100 nM) | cell viability (HepG2 [3]; 1000 nM) | cell viability (HepG2 [3]; 10000 nM) | cell viability (U2OS [4]; 1 nM) | cell viability (U2OS [4]; 10 nM) | cell viability (U2OS [4]; 100 nM) | cell viability (U2OS [4]; 1000 nM) | cell viability (U2OS [4]; 10000 nM) | cell viability (Vero E6 [5]; 1 nM) | cell viability (Vero E6 [5]; 10 nM) | cell viability (Vero E6 [5]; 100 nM) | cell viability (Vero E6 [5]; 1000 nM) | cell viability (Vero E6 [5]; 10000 nM) | relative viability EC50 (Caco-2 [6]) | relative viability EC50 (Calu-3 [7]) | relative viability EC50 (HepG2 [8]) | relative viability EC50 (U2OS [9]) | relative viability EC50 (Vero E6 [10]) | drug sensitivity score (Caco-2 [11]) | drug sensitivity score (Calu-3 [12]) | drug sensitivity score (HepG2 [13]) | drug sensitivity score (U2OS [14]) | drug sensitivity score (Vero E6 [15]) |
| --- | --- | --- | --- | --- | --- | --- | --- | --- | --- | --- | --- | --- | --- | --- | --- | --- | --- | --- | --- | --- | --- | --- | --- | --- | --- | --- | --- | --- | --- | --- | --- | --- | --- | --- | --- |
| COc1ccc(CCN(C)CCc2ccc(OC)c(OC)c2)cc1OC [YS-035] | 95.6% | 100% | 90.6% | 90.4% | 97.4% | 98.2% | 106% | 93.9% | 95.5% | 102% | 101% | 103% | 105% | 96.3% | 110% | 99.3% | 106% | 96.7% | 99.9% | 96.6% | 100% | 99.9% | 98.3% | 97.8% | 101% | > 10 µM | > 10 µM | > 10 µM | > 10 µM | > 10 µM | 0 | 0 | 0 | 0 | 0 |
| CCN(C(=O)c1c(O)c2c(Cl)cccc2n(C)c1=O)c1ccccc1 [laquinimod] | 90.3% | 88.5% | 98.2% | 106% | 91.5% | 110% | 87.9% | 91.5% | 108% | 102% | 102% | 98.6% | 103% | 93.4% | 92.8% | 96.9% | 98.9% | 99.2% | 97.6% | 96.9% | 99.8% | 99.9% | 92.8% | 92.5% | 91.4% | > 10 µM | > 10 µM | > 10 µM | > 10 µM | > 10 µM | 0 | 0 | 0 | 0 | 0 |
| c1cnc(NCc2ccc(CNc3ncccn3)cc2)nc1 [MSX-122] | 92.9% | 100% | 107% | 112% | 99.2% | 104% | 100% | 109% | 99.4% | 113% | 90.6% | 103% | 102% | 92.3% | 101% | 94.7% | 103% | 106% | 99.4% | 99.8% | 101% | 98.6% | 100% | 103% | 99.1% | > 10 µM | > 10 µM | > 10 µM | > 10 µM | > 10 µM | 0 | 0 | 0 | 0 | 0 |
| CS(=O)(=O)n1cc2c(n1)CN([C@H]1CO[C@H](c3cc(F)ccc3F)[C@@H](N)C1)C2 [omarigliptin] | 92.5% | 101% | 95.4% | 97.5% | 106% | 98.4% | 97.7% | 88.4% | 108% | 100% | 103% | 106% | 101% | 99.7% | 103% | 97.8% | 96.8% | 94.2% | 101% | 104% | 97.8% | 103% | 95.5% | 98.7% | 103% | > 10 µM | > 10 µM | > 10 µM | > 10 µM | > 10 µM | 0 | 0 | 0 | 0 | 0 |
| CC(O)(P(=O)(O)O)P(=O)(O)O [etidronic-acid] | 103% | 91.5% | 103% | 98.2% | 104% | 93.2% | 103% | 109% | 92.1% | 105% | 92.3% | 105% | 105% | 100% | 94.6% | 102% | 97% | 98.6% | 103% | 102% | 92.7% | 91.1% | 96.1% | 90.1% | 95.8% | > 10 µM | > 10 µM | > 10 µM | > 10 µM | > 10 µM | 0 | 0 | 0 | 0 | 0 |
| CCCC1(CCC)CCC2(CCN(CCCN(CC)CC)C2)CC1 [atiprimod] | 99.2% | 94.7% | 98.4% | 94.9% | 20.7% | 103% | 103% | 101% | 86.9% | 0.7% | 91.1% | 94.8% | 93.2% | 83.3% | 0% | 101% | 105% | 95.8% | 96.1% | 14.6% | 97.9% | 98.7% | 101% | 92.1% | 16.9% | 2.66 µM | 2.1 µM | 1.89 µM | 2.82 µM | 2.38 µM | 5.1 | 7.7 | 8.3 | 5.3 | 5.9 |
| O=C(/C=C/c1ccc(O)cc1)c1ccc(O)cc1O [isoliquiritigenin] | 102% | 92.1% | 95.6% | 92.2% | 86.4% | 103% | 93.7% | 107% | 107% | 112% | 102% | 107% | 91.9% | 101% | 96.5% | 97.3% | 99.7% | 103% | 98.2% | 94.9% | 99.4% | 107% | 93.6% | 104% | 113% | > 10 µM | > 10 µM | > 10 µM | > 10 µM | > 10 µM | 0.2 | 0 | 0 | 0 | 0 |
| O=C(Nc1ccccc1C(=O)NC1CCCCNC1=O)c1cc2ccccc2s1 (stereo not given) [ANA-12] | 90.9% | 97.4% | 96.1% | 106% | 96.4% | 99.6% | 95.3% | 101% | 94.7% | 87.7% | 104% | 93.1% | 100% | 91.4% | 98.4% | 97.8% | 101% | 91.5% | 104% | 96.7% | 100% | 99.3% | 99.8% | 89.5% | 104% | > 10 µM | > 10 µM | > 10 µM | > 10 µM | > 10 µM | 0 | 0.3 | 0 | 0 | 0 |
| COc1[nH]c2ccc(F)cc2c1C(=O)OCC1CCN(CCNS(C)(=O)=O)CC1 | 103% | 99.3% | 96.7% | 98.2% | 98.3% | 96% | 94.3% | 92.2% | 105% | 107% | 98.7% | 105% | 97.2% | 101% | 94.6% | 104% | 94.5% | 100% | 97.2% | 98.9% | 103% | 108% | 102% | 104% | 97.3% | > 10 µM | > 10 µM | > 10 µM | > 10 µM | > 10 µM | 0 | 0 | 0 | 0 | 0 |
| O=S(=O)(O)NC1CCCCC1 [cyclamic-acid] | 107% | 106% | 85.7% | 98.4% | 93.5% | 101% | 99.7% | 90% | 101% | 97.8% | 112% | 99.5% | 97.8% | 98.8% | 105% | 98.1% | 100% | 96.8% | 101% | 96.3% | 108% | 99.8% | 101% | 99.1% | 106% | > 10 µM | > 10 µM | > 10 µM | > 10 µM | > 10 µM | 0 | 0 | 0 | 0 | 0 |
| Cc1ccc(NC2=CC(=O)c3sc(C)nc3C2=O)cc1 [ryuvidine] | 94.2% | 91.8% | 92.7% | 77.9% | 0.9% | 115% | 95.8% | 109% | 102% | 2.7% | 95.4% | 106% | 97.9% | 98.1% | 8.5% | 102% | 97.3% | 104% | 99.3% | 0% | 100% | 97.7% | 97.4% | 96.4% | 16.2% | 1.64 µM | 3.29 µM | 3.02 µM | 3.12 µM | 2.84 µM | 9 | 5.2 | 5.3 | 5.7 | 5.2 |

Source: the supplement of paper PMC13380429
